Laboratory results: patent US20240226225A1 (Protagonist Therapeutics, Inc., priority 2021, published 2024)
Starred links: 1 amine or outer side, 2 acyl side, 3 side chain; linkers in the order of their positions; H or OH if unused. Positions of bridges follow the written chain, without caps; N, C: chain ends. Non-standard residues stand in square brackets, D forms with d. Residues, ends and D or L forms follow the SMILES beside them. Groups on a side chain read outwards from the residue. *: point of attachment. Ala(1H-tetrazol-5-yl) = N[C@@H](Cc1nnn[nH]1)C(=O)O; Phe(3,4-Cl2) = N[C@@H](Cc1ccc(Cl)c(Cl)c1)C(=O)O; Phe(2,4-Cl2) = N[C@@H](Cc1ccc(Cl)cc1Cl)C(=O)O; Phe(3,5-F2) = N[C@@H](Cc1cc(F)cc(F)c1)C(=O)O; C18 diacid = O=C(O)CCCCCCCCCCCCCCCCC(=O)*; γGlu = O=C(O)[C@H](CCC(=O)[*:2])N[*:1]; β3hF = N[C@H](CC(=O)O)Cc1ccccc1; Isovaleryl = CC(C)CC(=O)*; AEEA = NCCOCCOCC(=O)O

target: T1, ferroportin (Homo sapiens, UniProt Q9NP59); assay: FPN activity assay: internalization/degradation of ferroportin-GFP in stably transfected HEK293 cells, decrease in GFP fluorescence; type: cell-based; set-up: expressed in transfected cells; conditions: HEK293 cells stably expressing ferroportin-GFP, at least 18 hours incubation; read-out: FPN EC50
T1 sequence (Q9NP59 1-571): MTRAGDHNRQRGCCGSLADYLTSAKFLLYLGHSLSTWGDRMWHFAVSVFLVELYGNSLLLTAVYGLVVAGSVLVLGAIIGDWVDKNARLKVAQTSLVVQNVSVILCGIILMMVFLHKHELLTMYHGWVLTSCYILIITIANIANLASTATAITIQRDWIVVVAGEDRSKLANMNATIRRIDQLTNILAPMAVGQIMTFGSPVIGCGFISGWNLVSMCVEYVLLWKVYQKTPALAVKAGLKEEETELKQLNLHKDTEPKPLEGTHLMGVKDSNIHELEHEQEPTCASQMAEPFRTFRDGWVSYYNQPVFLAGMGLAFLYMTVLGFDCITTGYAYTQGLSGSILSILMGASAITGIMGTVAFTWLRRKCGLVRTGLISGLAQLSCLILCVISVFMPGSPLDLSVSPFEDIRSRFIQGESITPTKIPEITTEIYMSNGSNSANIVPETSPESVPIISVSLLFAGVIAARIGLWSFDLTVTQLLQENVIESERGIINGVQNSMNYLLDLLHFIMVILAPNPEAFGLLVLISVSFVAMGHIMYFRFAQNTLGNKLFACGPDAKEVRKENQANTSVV

Row | DC50 [nM] | SMILES
1 | 10 to 100 | CC[C@H](C)[C@@H]1NC(=O)[C@@H](NC(=O)[C@@H]2CCCN2C(=O)[C@H](Cc2ccccc2)NC(=O)[C@H](Cc2c[nH]cn2)NC(=O)[C@@H](NC(=O)[C@H](Cc2nn[nH]n2)NC(=O)CC(C)C)[C@@H](C)O)CSSC[C@@H](C(=O)N[C@@H](CCCCN)C(N)=O)NC(=O)CNC(=O)[C@H](CCCCN)NC(=O)[C@H](CO)NC(=O)[C@H](CCCNC(=N)N)NC(=O)[C@@H]2CCCN2C(=O)[C@H](CCC(=O)O)NC(=O)[C@H](Cc2ccccc2)NC(=O)[C@H](CCCCNC(=O)COCCOCCNC(=O)COCCOCCNC(=O)CC[C@H](NC(=O)CCCCCCCCCCCCCCCCC(=O)O)C(=O)O)NC1=O [Compd 3, Isovaleric Acid-[Tet1]-T-H-F-P-[Cys]-I-[Lys(1PEG2_1PEG2_IsoGlu_C18_Diacid)]-F-E-P-R-S-K-G-[Cys]-K-NH2] (Isovaleryl-[Ala(1H-tetrazol-5-yl)]THFPCIK([AEEA-AEEA-γGlu-C18 diacid])FEPRSKGCK-NH2; disulfide 6-16)
2 | 100 to 500 | CC[C@H](C)[C@@H]1NC(=O)[C@@H](NC(=O)[C@@H]2CCCN2C(=O)[C@H](Cc2cc(F)cc(F)c2)NC(=O)[C@H](Cc2c[nH]cn2)NC(=O)[C@@H](NC(=O)[C@H](Cc2nn[nH]n2)NC(=O)CC(C)C)[C@@H](C)O)CSSC[C@@H](C(N)=O)NC(=O)[C@@H](CCCCN)NC(=O)C[C@H](Cc2ccccc2)NC(=O)[C@H](CCCCNC(=O)COCCOCCNC(=O)COCCOCCNC(=O)CC[C@H](NC(=O)CCCCCCCCCCCCCCCCC(=O)O)C(=O)O)NC1=O [Compd 19, Isovaleric Acid-[Tet1]-T-H-[Phe_35diF]-P-[Cys]-I-[Lys(1PEG2_1PEG2_IsoGlu_C18_Diacid)]-[bhPhe]-[(D)Lys]-[Cys]-NH2] (Isovaleryl-[Ala(1H-tetrazol-5-yl)]TH[Phe(3,5-F2)]PCIK([AEEA-AEEA-γGlu-C18 diacid])[β3hF][dK]C-NH2; disulfide 6-11)
3 | 100 to 500 | CC[C@H](C)[C@@H]1NC(=O)[C@@H](NC(=O)[C@@H]2CCCN2C(=O)[C@H](Cc2ccc(Cl)c(Cl)c2)NC(=O)[C@H](Cc2c[nH]cn2)NC(=O)[C@@H](NC(=O)[C@H](Cc2nn[nH]n2)NC(=O)CC(C)C)[C@@H](C)O)CSSC[C@@H](C(N)=O)NC(=O)[C@@H](CCCCN)NC(=O)C[C@H](Cc2ccccc2)NC(=O)[C@H](CCCCNC(=O)COCCOCCNC(=O)COCCOCCNC(=O)CC[C@H](NC(=O)CCCCCCCCCCCCCCCCC(=O)O)C(=O)O)NC1=O [Compd 25, Isovaleric Acid-[Tet1]-T-H-[Phe_34diCl]-P-[Cys]-I-[Lys(1PEG2_1PEG2_IsoGlu_C18_Diacid)]-[bhPhe]-[(D)Lys]-[Cys]-NH2] (Isovaleryl-[Ala(1H-tetrazol-5-yl)]TH[Phe(3,4-Cl2)]PCIK([AEEA-AEEA-γGlu-C18 diacid])[β3hF][dK]C-NH2; disulfide 6-11)
4 | 100 to 500 | CC[C@H](C)[C@@H]1NC(=O)[C@@H](NC(=O)[C@@H]2CCCN2C(=O)[C@H](Cc2ccc(Cl)cc2Cl)NC(=O)[C@H](Cc2c[nH]cn2)NC(=O)[C@@H](NC(=O)[C@H](Cc2nn[nH]n2)NC(=O)CC(C)C)[C@@H](C)O)CSSC[C@@H](C(N)=O)NC(=O)[C@@H](CCCCN)NC(=O)C[C@H](Cc2ccccc2)NC(=O)[C@H](CCCCNC(=O)COCCOCCNC(=O)COCCOCCNC(=O)CC[C@H](NC(=O)CCCCCCCCCCCCCCCCC(=O)O)C(=O)O)NC1=O [Compd 26, Isovaleric Acid-[Tet1]-T-H-[Phe_24diCl]-P-[Cys]-I-[Lys(1PEG2_1PEG2_IsoGlu_C18_Diacid)]-[bhPhe]-[(D)Lys]-[Cys]-NH2] (Isovaleryl-[Ala(1H-tetrazol-5-yl)]TH[Phe(2,4-Cl2)]PCIK([AEEA-AEEA-γGlu-C18 diacid])[β3hF][dK]C-NH2; disulfide 6-11)
